This is an account of results in patent US5919781A, “Use of NK-1 receptor antogonists for treating substance use disorders” (Merck Sharp & Dohme Ltd., priority 1996, dated 1999).

Where two headings read alike, the source gives them in different places.

The test system of experiment [1] is cisplatin-induced emesis in ferrets. Nature of the experiment: Ferret emesis (Assay 3), inhibition of cisplatin-induced emesis. The class given is in vivo. The conditions noted are these: Mustela putorius, po, 60 minutes before cisplatin 10 mg/kg i.v.; 4 hours observation; read-out: ferret emesis: ID90. On the procedure:
ASSAY 3: Ferret Emesis […] Ten minutes later they are fed with approximately 100 g of tinned cat food. At 60 minutes following oral dosing, cisplatin (10 mg/kg) is given i.v. via a jugular vein catheter inserted under a brief period of halothane anaesthesia. The catheter is then removed, the jugular vein ligated and the skin incision closed. The ferrets recover rapidly from the anaesthetic and are mobile within 10-20 minutes. The animals are observed continuously during recovery from the anaesthetic and for 4 hours following the cisplatin injection. The numbers of retches and vomits occurring during the 4 hours after cisplatin administration are recorded by trained observers.

In a further experiment the target is T1, NK-1 receptor (Meriones unguiculatus, UniProt Q5DUB1).
T1 construct: male or female Mongolian gerbils (35-70 g) are anaesthetised; from tissue; host or cells: brain of the living Mongolian gerbil (in vivo, agonist infused intracerebroventricularly)
Nature of the experiment: Gerbil foot-tapping (Assay 2), inhibition of foot tapping induced by central infusion of NK-1 receptor agonist GR73632. The settings on record: iv. The format is in vivo, Mongolian gerbils. An excerpt: ASSAY 2: Gerbil Foot-Tapping
CNS-penetrant NK-1 receptor antagonists for use in the present invention can be identified by their ability to inhibit foot tapping in gerbils induced by anxiogenic agents (such as pentagastrin) or central infusion of NK-1 receptor agonists such as GR73632, or caused by aversive stimulation such as foot shock or single housing, based on the method of Rupniak & Williams, Eur. J. Pharmacol., 1994, 265, 179.
Briefly, male or female Mongolian gerbils (35-70 g) are anaesthetised by inhalation of an isoflurane/oxygen mixture to permit exposure of the jugular vein in order to permit administration of test compounds or vehicle in an injection volume of 5 ml/kg i.v. Alternatively, test compounds may be administered orally or by subcutaneous or intraperitoneal routes. A skin incision is then made in the midline of the scalp to expose the skull. […]

Experiment [2] concerns naloxone-precipitated withdrawal signs in rats. The settings on record: central (i.c.v.) injection; rats receiving morphine for five days; Maldonado et al, 1993; cited from earlier work.
Experiment [3] has as its system morphine withdrawal response in guinea-pigs. The settings on record: systemic administration, only high doses active, Chahl & Johnston, 1992; cited from earlier work.

T1 sequence (Q5DUB1 whole entry, the tested form may be a part): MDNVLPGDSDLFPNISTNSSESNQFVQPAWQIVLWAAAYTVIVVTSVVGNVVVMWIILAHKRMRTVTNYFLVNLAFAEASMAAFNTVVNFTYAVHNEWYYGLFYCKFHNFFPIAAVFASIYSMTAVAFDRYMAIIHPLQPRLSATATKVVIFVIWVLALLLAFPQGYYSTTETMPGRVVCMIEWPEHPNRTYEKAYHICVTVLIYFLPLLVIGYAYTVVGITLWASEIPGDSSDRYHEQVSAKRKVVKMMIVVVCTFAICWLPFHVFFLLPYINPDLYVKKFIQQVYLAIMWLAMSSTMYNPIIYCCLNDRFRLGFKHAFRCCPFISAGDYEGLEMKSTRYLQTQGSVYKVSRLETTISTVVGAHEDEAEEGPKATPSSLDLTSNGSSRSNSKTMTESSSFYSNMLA

For the compound `C[C@@H](O[C@H]1OCCN(Cc2n[nH]c(=O)[nH]2)[C@H]1c1ccc(F)cc1)c1cc(C(F)(F)F)cc(C(F)(F)F)c1` [2-(R)-(1-(R)-(3,5-bis(trifluoromethyl)phenyl)ethoxy)-3-(S)-(4-fluorophenyl)-4-(3-(5-oxo-1H,4H-1,2,4-triazolo)methyl)morpholine], the ED90 in experiment [1] is less than 3 mg/kg. In addition, the ED50 at NK-1 receptor (5 min, i.v., 5 mins., administered immediately prior to GR73632 challenge, read-out: gerbil foot-tapping (5 mins.): ID50) was 0.36 mg/kg; at NK-1 receptor (24 hours prior to central NK1 agonist challenge, read-out: gerbil foot-tapping (24 hrs.): ID50) it was 0.33 mg/kg.

Consider `COc1ccccc1CC(=N)N1CC2C(=O)CCC(c3ccccc3)(c3ccccc3)C2C1` (centres unmarked) [RP67580], for which the “attenuation of naloxone-precipitated withdrawal signs” value in experiment [2] is reported as “could attenuate naloxone-precipitated withdrawal signs”.

For the compound `COc1ccccc1CNC1C2CCN(CC2)C1C(c1ccccc1)c1ccccc1` (centres unmarked) [CP-96,345], in experiment [3], the “doses active in blocking the withdrawal response” value is reported as 20 mg/kg.
